Results: patent US7229803B2, “Reaction of (di)amines in the presence of a lysine oxidase and of a reducing agent” (BASF Aktiengesellschaft, priority 2001, dated 2007)

target: T1, lysine oxidase from Pichia pastoris (Komagataella pastoris, UniProt Q96X16); test: Assays with various substrates: conversion in the presence of lysine oxidase (peroxidase/4-aminoantipyrine/phenol dye, absorption at 500 nm); type: biochemical; settings: substrate 18.75-1200 μmol/l in water, no reducing agent, L-lysine = 100
T1 construct: Purification of the Lysine Oxidase from Pichia pastoris; endogenous in cells; host or cells: Pichia pastoris (enzyme purified from the yeast itself)
T1 sequence (Q96X16 19-787): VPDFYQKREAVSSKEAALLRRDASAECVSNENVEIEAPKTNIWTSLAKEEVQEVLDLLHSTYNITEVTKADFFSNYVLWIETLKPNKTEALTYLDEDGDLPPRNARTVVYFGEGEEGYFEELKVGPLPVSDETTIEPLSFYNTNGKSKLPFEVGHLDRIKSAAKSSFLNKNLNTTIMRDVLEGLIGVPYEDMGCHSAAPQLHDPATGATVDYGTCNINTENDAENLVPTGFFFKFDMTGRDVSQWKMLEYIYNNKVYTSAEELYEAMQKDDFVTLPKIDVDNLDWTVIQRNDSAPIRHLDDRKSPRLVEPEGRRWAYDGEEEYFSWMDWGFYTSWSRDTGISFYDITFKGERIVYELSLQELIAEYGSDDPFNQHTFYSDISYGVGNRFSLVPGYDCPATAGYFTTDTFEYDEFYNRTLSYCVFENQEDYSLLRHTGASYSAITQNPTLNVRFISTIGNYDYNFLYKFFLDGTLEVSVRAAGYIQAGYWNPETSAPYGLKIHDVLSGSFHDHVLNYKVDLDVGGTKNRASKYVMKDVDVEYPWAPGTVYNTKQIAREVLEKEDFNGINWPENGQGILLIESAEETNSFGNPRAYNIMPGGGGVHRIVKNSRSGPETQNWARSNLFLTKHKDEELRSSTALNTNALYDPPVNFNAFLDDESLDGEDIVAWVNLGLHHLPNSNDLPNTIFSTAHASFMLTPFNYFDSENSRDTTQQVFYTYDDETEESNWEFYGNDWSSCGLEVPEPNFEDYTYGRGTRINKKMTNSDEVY
Experimental: Measurement series in each case with a concentration of 1 200, 600, 300, 150, 75, 37.5 and 18.75 μmol of (di)amine per 1 l of water were carried out in a microtiter plate. 2 measurement series were carried out in each case; one with enzyme and one without enzyme as reference.
100 μl of each of the diluted solutions were taken. To this solution were added 25 μl of lysine oxidase and 40 μl of 35 millimolar phenol solution in 200 millimolar potassium phosphate/potassium diphosphate solution with a pH of 7.5, 40 μl of a 2 millimolar aqueous 4-aminoantipyrine solution and 40 μl of a solution of 0.35 mg of peroxidase (horseradish from Sigma) in 1 ml of water.
In the reference measurement series, the 25 μl of lysine oxidase were replaced by 25 μl of water. A violet dye was formed by the […] produced on conversion of the substrates and its absorption in the UV at 500 nm was measured (T. Uwajima, O. Terada, Methods in Enzymology 1982, 89, 243 ff.).

In order of rising “Relative conversion rate compared with L-lysine in %” value:
1. NCCCC(N)C(=O)OC(F)F [D/L-Ornithine difluoromethyl ester]  39%
2. NCCO [Ethanolamine]  50%
3. NCC(O)CCC(N)C(=O)O [D/L-5-Hydroxylysine]  60%
4. CCCCN [n-Butylamine]  63%
5. NCCN [Ethylenediamine]  84%
6. CCOC(=O)CN [Glycine ethyl ester]  93%
7. NCCCC[C@@H](N)C(=O)O [D-Lysine]  100%
8. NCCCC[C@H](N)C(=O)O [L-Lysine]  100%
9. NCc1ccccc1 [Benzylamine]  108%
10. CC(=O)N[C@@H](CCCCN)C(=O)O [α-N-Acetyllysine]  120%
11. NCc1cccnc1 [3-Aminomethylpyridine]  128%
12. NCCCCN [1,4-Diaminobutane]  133%
13. NCCCCCCN [1,6-Diaminohexane]  180%
14. NCCCNCCCCNCCCN [Spermine]  185%
15. NCCCCCCCCN [1,8-Diaminooctane]  197%
